According to PubChem BioAssay AID330 (DTP/NCI, 2004):
“And” between values parts separate entries of the source, which are not always exact repeats. Equal values may be shown once. Toxic doses and inconclusive results are not listed.

System: P388 leukemia ip, CD2F1 mice, survival T/C
Assay: NCI In Vivo Anticancer Drug Screen. Data for tumor model P388 Leukemia (intraperitoneal) in CD2F1 (CDF1) mice
Details: endpoint: median survival time, higher = longer survival
Summary of the method: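 Mice carrying the transplanted tumor received test compound or vehicle. Survival was recorded in each group, and the value is the treated-group measurement divided by that of the vehicle-treated control group.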

[1] = dose: 60.0 mg/kg/injection, schedule: Q01DX005 (ip), vehicle: Klucel (hydroxypropylcellulose) (HPC)
[2] = dose: 120.0 mg/kg/injection, schedule: Q01DX005 (ip), vehicle: Klucel (hydroxypropylcellulose) (HPC)
[3] = dose: 240.0 mg/kg/injection, schedule: Q01DX005 (ip), vehicle: Klucel (hydroxypropylcellulose) (HPC)
[4] = dose: 25.0 mg/kg/injection, schedule: Q04DX002 (ip), vehicle: saline with Tween-80
[5] = dose: 50.0 mg/kg/injection, schedule: Q04DX002 (ip), vehicle: saline with Tween-80
[6] = dose: 50.0 mg/kg/injection, schedule: Q01DX005 (ip), vehicle: saline with Tween-80
[7] = dose: 100.0 mg/kg/injection, schedule: Q01DX005 (ip), vehicle: saline with Tween-80
[8] = dose: 200.0 mg/kg/injection, schedule: Q01DX005 (ip), vehicle: saline with Tween-80
[9] = dose: 50.0 mg/kg/injection, schedule: Q01DX009 (ip), vehicle: saline
[10] = dose: 100.0 mg/kg/injection, schedule: Q01DX009 (ip), vehicle: saline
[11] = dose: 200.0 mg/kg/injection, schedule: Q01DX009 (ip), vehicle: saline
[12] = dose: 50.0 mg/kg/injection, schedule: Q01DX005 (ip), vehicle: Klucel (hydroxypropylcellulose) (HPC)
[13] = dose: 100.0 mg/kg/injection, schedule: Q01DX005 (ip), vehicle: Klucel (hydroxypropylcellulose) (HPC)
[14] = dose: 200.0 mg/kg/injection, schedule: Q01DX005 (ip), vehicle: Klucel (hydroxypropylcellulose) (HPC)
[15] = dose: 50.0 mg/kg/injection, schedule: Q01DX009 (ip), vehicle: saline with Tween-80
[16] = dose: 100.0 mg/kg/injection, schedule: Q01DX009 (ip), vehicle: saline with Tween-80
[17] = dose: 200.0 mg/kg/injection, schedule: Q01DX009 (ip), vehicle: saline with Tween-80
[18] = dose: 12.5 mg/kg/injection, schedule: Q01DX009 (ip), vehicle: saline with Tween-80
[19] = dose: 25.0 mg/kg/injection, schedule: Q01DX009 (ip), vehicle: saline with Tween-80

Cc1cccc2c(SCCCCCCSc3c4ccccc4nc4c(C)cccc34)c3ccccc3nc12
T/C [1]: 90 % of control
T/C [2]: 92 % of control
T/C [3]: 91 % of control

C=CCc1ccccc1C1=[N+](C)C(C)(C)CO1
T/C [4]: 100 % of control
T/C [5]: 102 % of control
T/C (dose: 100.0 mg/kg/injection, schedule: Q04DX002 (ip), vehicle: saline with Tween-80): 97 % of control

CCOC(=Nc1ccc(C#N)cc1)SC(c1ccccc1)(c1ccccc1)c1ccccc1
T/C [6]: 104 % of control
T/C [7]: 96 % of control
T/C [8]: 86 % of control

O=C1c2c(O)ccc(O)c2C(=O)c2c(NCCCCO)ccc(NCCCCO)c21
T/C (dose: 0.62 mg/kg/injection, schedule: Q01DX009 (ip), vehicle: acid diluted with saline): 103 % of control
T/C (dose: 1.25 mg/kg/injection, schedule: Q01DX009 (ip), vehicle: acid diluted with saline): 103 % of control
T/C (dose: 2.5 mg/kg/injection, schedule: Q01DX009 (ip), vehicle: acid diluted with saline): 103 % of control
T/C (dose: 5.0 mg/kg/injection, schedule: Q01DX009 (ip), vehicle: acid diluted with saline): 112 % of control
T/C (dose: 10.0 mg/kg/injection, schedule: Q01DX009 (ip), vehicle: acid diluted with saline): 102 % of control
T/C (dose: 20.0 mg/kg/injection, schedule: Q01DX009 (ip), vehicle: acid diluted with saline): 100 % of control
T/C (dose: 40.0 mg/kg/injection, schedule: Q01DX009 (ip), vehicle: acid diluted with saline): 98 % of control
T/C (dose: 80.0 mg/kg/injection, schedule: Q01DX009 (ip), vehicle: acid diluted with saline): 92 % of control
T/C (dose: 160.0 mg/kg/injection, schedule: Q01DX009 (ip), vehicle: acid diluted with saline): 86 % of control

c1ccc(C2SCCN2c2ccccc2)cc1 (stereo not given)
T/C [9]: 91 % of control
T/C [10]: 90 % of control
T/C [11]: 89 % of control

COc1cc(C)c(C2NC(=O)c3ccccc3N2)cc1C (stereo not given)
T/C [12]: 104 % of control and 111 % of control
T/C [13]: 103 % of control and 112 % of control
T/C (dose: 172.0 mg/kg/injection, schedule: Q01DX005 (ip), vehicle: Klucel (hydroxypropylcellulose) (HPC)): 109 % of control
T/C [14]: 112 % of control and 121 % of control
T/C (dose: 288.0 mg/kg/injection, schedule: Q01DX005 (ip), vehicle: Klucel (hydroxypropylcellulose) (HPC)): 118 % of control
T/C (dose: 800.0 mg/kg/injection, schedule: Q01DX005 (ip), vehicle: Klucel (hydroxypropylcellulose) (HPC)): 117 % of control
T/C (dose: 1333.0 mg/kg/injection, schedule: Q01DX005 (ip), vehicle: Klucel (hydroxypropylcellulose) (HPC)): 160 % of control

CC(C)(C)[P+](C)(C)c1ccccc1
T/C (dose: 12.5 mg/kg/injection, schedule: Q04DX003 (ip), vehicle: Klucel (hydroxypropylcellulose) (HPC)): 105 % of control
T/C (dose: 25.0 mg/kg/injection, schedule: Q04DX003 (ip), vehicle: Klucel (hydroxypropylcellulose) (HPC)): 100 % of control

CNC(=O)n1c(N)nc(-c2ccccc2)c1-c1ccccc1
T/C (dose: 12.5 mg/kg/injection, schedule: Q04DX002 (ip), vehicle: saline with Tween-80): 115 % of control
T/C [4]: 115 % of control
T/C [5]: 117 % of control

O=c1[nH]c2cc(Cl)ccc2nc1/C=C(\O)c1ccc(N2CCN(c3ccc(/C(O)=C/c4nc5ccc(Cl)cc5[nH]c4=O)cc3)CC2)cc1
T/C (dose: 60.0 mg/kg/injection, schedule: Q01DX005 (ip), vehicle: Klucel + Tween-80): 98 % of control
T/C (dose: 120.0 mg/kg/injection, schedule: Q01DX005 (ip), vehicle: Klucel + Tween-80): 93 % of control
T/C (dose: 240.0 mg/kg/injection, schedule: Q01DX005 (ip), vehicle: Klucel + Tween-80): 86 % of control

CCN(CC)C1C2=C(CCCC2)OS(=O)(=O)C1c1ccccc1 (stereo not given)
T/C [1]: 103 % of control
T/C [2]: 97 % of control
T/C [3]: 95 % of control

O=[N+]([O-])c1cc(Cl)c(Cl)cc1[N+](=O)[O-]
T/C [15]: 98 % of control
T/C [16]: 111 % of control

CC(=O)OC/C=C(C)/C=C/C=C(C)/C=C/C1=C(C)CCCC1(C)C
T/C [8]: 95 % of control
T/C (dose: 400.0 mg/kg/injection, schedule: Q01DX005 (ip), vehicle: saline with Tween-80): 97 % of control
T/C (dose: 800.0 mg/kg/injection, schedule: Q01DX005 (ip), vehicle: saline with Tween-80): 97 % of control
T/C (dose: 1600.0 mg/kg/injection, schedule: Q01DX005 (ip), vehicle: saline with Tween-80): 101 % of control

Cc1cc(=O)n2c(n1)Nc1ccc(Cl)cc1C2
T/C [15]: 100 % of control
T/C [16]: 98 % of control

Cc1cc(OC(=O)c2ccccc2OS(N)(=O)=O)ccc1Cl
T/C [1]: 98 % of control
T/C [2]: 97 % of control
T/C [3]: 94 % of control

COc1ccc(-c2nc(C)nc3c2Cc2c(ccc4ccccc24)O3)cc1
T/C [9]: 98 % of control
T/C [10]: 102 % of control
T/C [11]: 102 % of control

CC1CC[P+](C)(c2ccccc2)c2ccccc21 (stereo not given)
T/C (dose: 6.25 mg/kg/injection, schedule: Q04DX002 (ip), vehicle: saline): 100 % of control
T/C (dose: 12.5 mg/kg/injection, schedule: Q04DX002 (ip), vehicle: saline): 103 % of control

COc1ccc2c(c1)CCc1cn[nH]c1-2
T/C [12]: 93 % of control
T/C [13]: 92 % of control
T/C [14]: 93 % of control

NNC(=O)CNc1ccccc1F
T/C (dose: 15.0 mg/kg/injection, schedule: Q01DX005 (ip), vehicle: saline): 97 % of control
T/C (dose: 30.0 mg/kg/injection, schedule: Q01DX005 (ip), vehicle: saline): 95 % of control
T/C (dose: 60.0 mg/kg/injection, schedule: Q01DX005 (ip), vehicle: saline): 91 % of control and 97 % of control
T/C (dose: 120.0 mg/kg/injection, schedule: Q01DX005 (ip), vehicle: saline): 97 % of control

N#Cc1c(-c2ccccc2)c(-c2ccccc2)n(-c2ccccc2)c1N
T/C [15]: 104 % of control
T/C [16]: 104 % of control
T/C [17]: 104 % of control

N#CCSCC(=O)c1ccccc1
T/C [6]: 105 % of control
T/C [7]: 105 % of control
T/C [8]: 112 % of control

Cn1c(NCCN2CCCCC2)c(C(=O)/C=C/c2ccccc2)c(=O)n(C)c1=O
T/C [12]: 104 % of control
T/C [13]: 107 % of control
T/C [14]: 103 % of control

CCCCn1c(C)nc2cc(C(F)(F)F)cc(N)c21
T/C [15]: 99 % of control
T/C [16]: 101 % of control
T/C [17]: 108 % of control

O=c1nc(Nc2cccc(Cl)c2)oc2cc(Cl)oc(=O)c12
T/C [18]: 109 % of control
T/C [19]: 109 % of control
T/C [15]: 113 % of control and 115 % of control
T/C [16]: 95 % of control

COc1ccc(CN2CCCN(/N=C/c3c4c(O)c5c(O)c(C)c6c(c5c3O)C(=O)C(C)(O/C=C/C(OC)C(C)C(OC(C)=O)C(C)C(O)C(C)C(O)C(C)/C=C/C=C(C)C(=O)N4)O6)CC2)cc1 (stereo not given)
T/C [18]: 109 % of control
T/C [19]: 117 % of control
T/C [15]: 103 % of control and 97 % of control
T/C [16]: 100 % of control
T/C [17]: 97 % of control

CC(=O)c1ccc(N=NN(C)c2ccc(C(C)=O)cc2)cc1
T/C [15]: 108 % of control
T/C [16]: 107 % of control
T/C [17]: 101 % of control

COc1cc2c(O)c3c(c(-c4ccc5c(c4)OCO5)c2cc1OC)C(=O)OC3
T/C (dose: 25.0 mg/kg/injection, schedule: Q01DX009 (ip), vehicle: Klucel (hydroxypropylcellulose) (HPC)): 91 % of control
T/C (dose: 50.0 mg/kg/injection, schedule: Q01DX009 (ip), vehicle: Klucel (hydroxypropylcellulose) (HPC)): 100 % of control
T/C (dose: 100.0 mg/kg/injection, schedule: Q01DX009 (ip), vehicle: Klucel (hydroxypropylcellulose) (HPC)): 100 % of control
T/C (dose: 200.0 mg/kg/injection, schedule: Q01DX009 (ip), vehicle: Klucel (hydroxypropylcellulose) (HPC)): 117 % of control

Cc1cc(NCCN(C(C)C)C(C)C)nc(Nc2nc3cc(Cl)c(Cl)cc3[nH]2)n1
T/C (dose: 6.25 mg/kg/injection, schedule: Q01DX009 (ip), vehicle: saline sonified): 100 % of control
T/C (dose: 12.5 mg/kg/injection, schedule: Q01DX009 (ip), vehicle: saline sonified): 100 % of control

CCCCC(=O)CCCCCCCCC(=O)OCC
T/C (dose: 100.0 mg/kg/injection, schedule: Q04DX003 (ip), vehicle: Klucel (hydroxypropylcellulose) (HPC)): 102 % of control
T/C (dose: 200.0 mg/kg/injection, schedule: Q04DX003 (ip), vehicle: Klucel (hydroxypropylcellulose) (HPC)): 103 % of control
T/C (dose: 400.0 mg/kg/injection, schedule: Q04DX003 (ip), vehicle: Klucel (hydroxypropylcellulose) (HPC)): 95 % of control
